Active and inactive are the calls of the source. The rule behind the calls is not given here.
Tests used:
Acetylcholinesterase [1] = molecular target: Acetylcholinesterase (Electrophorus electricus, UniProt O42275); assay: Inhibition of electric eel AChE using acetylthiocholine iodide as substrate preincubated for 10 mins followed by substrate addition and measured for 15 mins by Ellman's method
HT-22 = assay: cells; format: functional, cell-based; conditions: Mus musculus, HT-22, 24 h
Description: Cytotoxicity against mouse HT-22 cells assessed as reduction in cell viability measured after 24 hrs by MTT assay

BV-2 [2] = assay: cells; format: functional, cell-based; conditions: Mus musculus, BV-2, 24 h
Description: Cytotoxicity against mouse BV-2 cells assessed as reduction in cell viability measured after 24 hrs by MTT assay

Cholinesterase [3] = molecular target: Cholinesterase (Equus caballus, UniProt P81908); assay: Inhibition of equine serum BChE using butyrylthiocholine iodide as substrate preincubated for 10 mins followed by substrate addition and measured after 15 mins by Ellman's method
Cholinesterase [4] = molecular target: Cholinesterase (Homo sapiens, UniProt P06276); assay: Inhibition of BuChE (unknown origin)
Acetylcholinesterase [5] = molecular target: Acetylcholinesterase (Homo sapiens, UniProt P22303); assay: Inhibition of AChE (unknown origin)
Mus musculus [6] = assay: Anti-alzheimer activity against scopolamine-induced cognitive dysfunction mouse model assessed as […] of AChE activity in hippocampus at 5 mg/kg, po measured after 10 days by colorimetric analysis; format: functional, organism-based; conditions: time 10.0 day
BV-2 [7] = assay: Anti-neuroinflammation in mouse BV-2 cells assessed as decrease in LPS-induced IL-6 production at 1.25 umol/L measured after 24 hrs by ELISA; format: functional, cell-based; conditions: dose 1.25 µmol/L
Mus musculus [8] = assay: Anti-alzheimer activity against scopolamine-induced cognitive dysfunction mouse model assessed as change in neuron damage in hippocampal CA3 region at 5 mg/kg, po measured after 10 days by Nissl staining based assay; format: functional, organism-based; conditions: time 10.0 day
Mus musculus [9] = assay: Anti-alzheimer activity against scopolamine-induced cognitive dysfunction mouse model assessed as change in neuron damage in hippocampal CA1 region at 5 mg/kg, po measured after 10 days by Nissl staining based assay; format: functional, organism-based; conditions: time 10.0 day
BV-2 [10] = assay: Anti-neuroinflammation in mouse BV-2 cells assessed as decrease in LPS-induced TNF-alpha production at 1.25 umol/L measured after 24 hrs by ELISA; format: functional, cell-based; conditions: dose 1.25 µmol/L
BV-2 [11] = assay: Anti-neuroinflammation in mouse BV-2 cells assessed as decrease in LPS-induced iNOS activity at 1.25 umol/L by fluorescence based assay; format: functional, cell-based; conditions: dose 1.25 µmol/L
[12] = molecular target: Amyloid-beta precursor protein (Homo sapiens) (UniProt P05067); assay: Inhibition of amyloid beta (1 to 42 ) (unknown origin) aggregation at 20 umol/L incubated for 24 hrs by thioflavin-T fluorescence method relative to control; conditions: dose 20.0 µmol/L
BV-2 [13] = assay: Anti-neuroinflammation in mouse BV-2 cells assessed as decrease in LPS-induced IL-6 production at 12.5 umol/L measured after 24 hrs by ELISA; format: functional, cell-based; conditions: dose 12.5 µmol/L
BV-2 [14] = assay: Anti-neuroinflammation in mouse BV-2 cells assessed as inhibition of LPS-induced NO production at 100 to 3.125 umol/L measured after 24 hrs by Griess method; format: functional, cell-based; conditions: dose 100-3.125 µmol/L
Mus musculus [15] = assay: Anti-alzheimer activity against scopolamine-induced cognitive dysfunction mouse model assessed as […] of AChE activity in hippocampus at 50 to 100 mg/kg, po dosed for 10 days by colorimetric analysis; format: functional, organism-based; conditions: dose 50-100 mg/kg, time 10.0 day
BV-2 [16] = assay: Anti-neuroinflammation in mouse BV-2 cells assessed as decrease in LPS-induced TNF-alpha production at 12.5 umol/L measured after 24 hrs by ELISA; format: functional, cell-based; conditions: dose 12.5 µmol/L
Mus musculus [17] = assay: Anti-alzheimer activity against scopolamine-induced cognitive dysfunction mouse model assessed as change in neuron damage in hippocampal CA1 region at 50 to 100 mg/kg, po measured after 10 days by Nissl staining based assay; format: functional, organism-based; conditions: Hippocampus, dose 50-100 mg/kg, time 10.0 day
BV-2 [18] = assay: Anti-neuroinflammation in mouse BV-2 cells assessed as decrease in LPS-induced iNOS activity at 12.5 umol/L by fluorescence based assay; format: functional, cell-based; conditions: dose 12.5 µmol/L
Mus musculus [19] = assay: Anti-alzheimer activity against scopolamine-induced cognitive dysfunction mouse model assessed as change in neuron damage in hippocampal CA3 region at 50 to 100 mg/kg, po measured after 10 days by Nissl staining based assay; format: functional, organism-based; conditions: Hippocampus, dose 50-100 mg/kg, time 10.0 day

Cholinesterase (Equus caballus, UniProt P81908), sequence (P81908 whole entry): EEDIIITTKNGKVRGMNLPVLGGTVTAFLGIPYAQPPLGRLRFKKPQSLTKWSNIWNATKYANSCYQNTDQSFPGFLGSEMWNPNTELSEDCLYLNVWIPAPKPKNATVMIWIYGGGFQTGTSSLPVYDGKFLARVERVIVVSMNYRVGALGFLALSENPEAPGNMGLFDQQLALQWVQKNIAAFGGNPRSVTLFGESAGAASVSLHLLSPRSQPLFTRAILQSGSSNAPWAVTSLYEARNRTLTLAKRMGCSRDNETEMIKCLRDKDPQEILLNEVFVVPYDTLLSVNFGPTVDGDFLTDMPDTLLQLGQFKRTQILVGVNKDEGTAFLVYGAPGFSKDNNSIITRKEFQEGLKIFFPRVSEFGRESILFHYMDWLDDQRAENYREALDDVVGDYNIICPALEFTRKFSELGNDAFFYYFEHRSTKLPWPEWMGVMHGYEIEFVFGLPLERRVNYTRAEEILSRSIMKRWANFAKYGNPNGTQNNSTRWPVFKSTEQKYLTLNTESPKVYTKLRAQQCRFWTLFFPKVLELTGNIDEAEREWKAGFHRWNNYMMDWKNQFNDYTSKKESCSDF
Acetylcholinesterase (Homo sapiens, UniProt P22303), sequence (P22303 whole entry): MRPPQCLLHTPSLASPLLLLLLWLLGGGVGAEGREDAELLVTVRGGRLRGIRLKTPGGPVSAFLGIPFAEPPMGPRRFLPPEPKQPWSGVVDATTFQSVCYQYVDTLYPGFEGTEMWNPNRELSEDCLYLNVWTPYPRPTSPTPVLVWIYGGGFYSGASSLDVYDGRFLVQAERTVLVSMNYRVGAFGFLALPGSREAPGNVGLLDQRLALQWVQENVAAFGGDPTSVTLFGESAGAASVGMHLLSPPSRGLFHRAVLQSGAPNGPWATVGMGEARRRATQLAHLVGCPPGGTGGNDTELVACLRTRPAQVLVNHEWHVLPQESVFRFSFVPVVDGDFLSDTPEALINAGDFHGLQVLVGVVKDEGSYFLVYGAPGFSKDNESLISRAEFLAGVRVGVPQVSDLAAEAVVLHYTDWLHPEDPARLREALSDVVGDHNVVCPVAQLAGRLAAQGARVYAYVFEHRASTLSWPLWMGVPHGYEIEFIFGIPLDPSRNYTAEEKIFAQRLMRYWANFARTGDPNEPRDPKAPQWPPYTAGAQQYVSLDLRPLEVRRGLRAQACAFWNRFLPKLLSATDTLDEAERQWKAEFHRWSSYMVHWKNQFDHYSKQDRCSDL
Acetylcholinesterase (Electrophorus electricus, UniProt O42275), sequence (O42275 whole entry): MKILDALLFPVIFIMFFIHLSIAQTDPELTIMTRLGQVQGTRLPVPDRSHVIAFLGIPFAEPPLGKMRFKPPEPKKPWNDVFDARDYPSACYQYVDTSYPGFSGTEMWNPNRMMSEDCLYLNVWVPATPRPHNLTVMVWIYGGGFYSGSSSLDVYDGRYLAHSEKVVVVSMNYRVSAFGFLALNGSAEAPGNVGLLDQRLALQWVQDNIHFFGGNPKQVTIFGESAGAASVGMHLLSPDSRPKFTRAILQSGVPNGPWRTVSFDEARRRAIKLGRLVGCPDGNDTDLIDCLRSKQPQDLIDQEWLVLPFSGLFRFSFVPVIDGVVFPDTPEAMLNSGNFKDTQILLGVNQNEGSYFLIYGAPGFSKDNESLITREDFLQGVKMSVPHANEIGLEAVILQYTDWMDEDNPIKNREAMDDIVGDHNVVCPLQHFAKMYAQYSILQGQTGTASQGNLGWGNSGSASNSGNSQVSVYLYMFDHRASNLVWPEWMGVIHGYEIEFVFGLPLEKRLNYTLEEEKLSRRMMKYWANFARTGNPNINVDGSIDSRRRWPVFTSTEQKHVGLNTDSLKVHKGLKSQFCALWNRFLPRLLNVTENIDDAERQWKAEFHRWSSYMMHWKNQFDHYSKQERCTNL
Cholinesterase (Homo sapiens, UniProt P06276), sequence (P06276 whole entry): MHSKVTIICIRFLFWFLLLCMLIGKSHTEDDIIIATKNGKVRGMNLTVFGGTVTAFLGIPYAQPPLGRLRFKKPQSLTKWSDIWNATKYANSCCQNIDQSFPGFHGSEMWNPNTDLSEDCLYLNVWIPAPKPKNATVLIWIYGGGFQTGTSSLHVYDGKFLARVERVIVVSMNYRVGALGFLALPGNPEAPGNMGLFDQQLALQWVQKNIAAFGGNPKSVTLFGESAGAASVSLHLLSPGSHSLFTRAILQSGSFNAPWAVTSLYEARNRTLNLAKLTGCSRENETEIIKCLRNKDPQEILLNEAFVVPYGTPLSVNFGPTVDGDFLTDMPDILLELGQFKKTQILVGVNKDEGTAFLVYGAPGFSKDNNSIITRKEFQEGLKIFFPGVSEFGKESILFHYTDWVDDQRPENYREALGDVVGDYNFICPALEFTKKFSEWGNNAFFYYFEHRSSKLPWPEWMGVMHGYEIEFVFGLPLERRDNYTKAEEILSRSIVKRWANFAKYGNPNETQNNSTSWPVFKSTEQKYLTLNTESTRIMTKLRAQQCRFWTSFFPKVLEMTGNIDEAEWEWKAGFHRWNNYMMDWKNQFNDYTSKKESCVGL
Amyloid-beta precursor protein (Homo sapiens), sequence (P05067 whole entry): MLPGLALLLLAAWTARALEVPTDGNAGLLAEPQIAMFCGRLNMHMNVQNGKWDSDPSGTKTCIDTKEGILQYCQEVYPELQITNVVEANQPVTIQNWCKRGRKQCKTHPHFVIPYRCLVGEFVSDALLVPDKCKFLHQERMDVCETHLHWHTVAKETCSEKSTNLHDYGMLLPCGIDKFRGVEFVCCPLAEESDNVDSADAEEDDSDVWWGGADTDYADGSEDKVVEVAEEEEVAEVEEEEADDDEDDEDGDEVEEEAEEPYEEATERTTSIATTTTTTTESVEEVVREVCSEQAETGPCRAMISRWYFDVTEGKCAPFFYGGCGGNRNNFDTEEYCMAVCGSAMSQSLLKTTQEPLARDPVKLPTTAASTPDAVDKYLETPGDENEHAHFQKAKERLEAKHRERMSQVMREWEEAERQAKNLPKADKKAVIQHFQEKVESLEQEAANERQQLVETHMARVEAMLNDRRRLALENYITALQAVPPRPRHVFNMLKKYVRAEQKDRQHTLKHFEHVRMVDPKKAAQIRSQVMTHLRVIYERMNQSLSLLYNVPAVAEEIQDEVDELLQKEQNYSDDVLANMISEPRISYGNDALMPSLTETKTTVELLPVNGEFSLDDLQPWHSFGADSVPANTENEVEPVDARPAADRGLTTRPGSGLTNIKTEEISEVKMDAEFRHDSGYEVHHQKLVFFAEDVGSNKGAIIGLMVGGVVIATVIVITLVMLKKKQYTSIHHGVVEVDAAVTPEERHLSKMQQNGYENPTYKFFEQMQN

| Compound | IC50 (Acetylcholinesterase [1]) [µM] | IC50 (HT-22) [µM] | IC50 (BV-2 [2]) [µM] | IC50 (Cholinesterase [3]) [µM] | further results |
| --- | --- | --- | --- | --- | --- |
| O=C(NCCc1c[nH]c2ccccc12)c1ccccc1OC(=O)N1CCCCC1 | > 100 | 24.4 | 32.8 | > 100 |  |
| CON(C)C(=O)Oc1ccc(C(=O)NCCc2c[nH]c3ccccc23)cc1 | 3.11 | > 100 | 30.3 | 6.61 |  |
| CN1c2ccc(OC(=O)NCC3CCCCC3)cc2[C@]2(C)CCN(CCc3ccccc3)[C@H]12 |  |  |  |  | IC50 (Cholinesterase [4]): 0.0018 µM; IC50 (Acetylcholinesterase [5]): 0.0018 µM |
| CON(C)C(=O)Oc1cccc(C(=O)NCCc2c[nH]c3ccccc23)c1 | > 100 | 48.3 | 12.4 | 1.27 |  |
| CCCN(CCC)C(=O)Oc1ccccc1C(=O)NCCc1c[nH]c2ccccc12 | 37.2 | 25.4 | 0.33 | 35.8 |  |
| CCN(CC)C(=O)Oc1ccccc1C(=O)NCCc1c[nH]c2ccccc12 | 68.5 | 57.2 | 32.1 | 14 |  |
| CN(C(=O)Oc1ccccc1C(=O)NCCc1c[nH]c2ccccc12)c1ccccc1 | > 100 | 48.5 | 20.6 | 29.7 |  |
| COc1cc2c(cc1OC)C(=O)C(CC1CCN(Cc3ccccc3)CC1)C2 (stereo unspecified) [DONEPEZIL] |  | 56.4 | 1.54 |  | Activity (Mus musculus [6]): Active; Activity (BV-2 [7]): Active; Activity (Mus musculus [8]): Active; Activity (Mus musculus [9]): Active; Activity (BV-2 [10]): Active; Activity (BV-2 [11]): Active |
| CCNC(=O)Oc1ccc2c(c1)[C@]1(C)CCOC1O2 (stereo partly specified) |  |  |  |  | IC50 (Cholinesterase [4]): 0.006 µM; IC50 (Acetylcholinesterase [5]): 0.006 µM |
| O=C(NCCc1c[nH]c2ccccc12)c1ccccc1OC(=O)N1CCCC1 | > 100 | 64.3 | 56 | 1.2 |  |
| O=C(NCCc1c[nH]c2ccccc12)c1ccccc1O | 23.2 | 101 | 26.8 | 15.9 | inhibition [12]: 19.6%; Activity (BV-2 [13]): Active; Activity (BV-2 [14]): Active; Activity (Mus musculus [15]): Active; Activity (BV-2 [16]): Active; Activity (Mus musculus [17]): Active; Activity (BV-2 [18]): Active; Activity (Mus musculus [19]): Active |
| O=C(NCCc1c[nH]c2ccccc12)c1ccccc1OC(=O)N(Cc1ccccc1)Cc1ccccc1 | > 100 | > 100 | 137 | 15.4 |  |
| CN1CC[C@@]2(C)c3cc(OC(=O)Nc4ccccc4)ccc3N(C)[C@@H]12 [PHENSERINE] |  |  |  |  | IC50 (Acetylcholinesterase [5]): 1.56 µM |
| CC(C)c1ccc(NC(=O)Oc2ccc3c(c2)[C@]2(C)CCOC2O3)cc1 (stereo partly specified) |  |  |  |  | IC50 (Cholinesterase [4]): 0.027 µM |
| O=C(NCCc1c[nH]c2ccccc12)c1ccccc1OC(=O)N1CCC1 | > 100 | 40.1 | 33.3 | 17 |  |
| O=C(NCCc1c[nH]c2ccccc12)c1ccccc1OC(=O)N1CCCCCC1 | > 100 | 25.1 | 32.7 | 24.1 |  |
| O=C(NCCc1c[nH]c2ccccc12)c1ccccc1OC(=O)N1CCc2ccccc21 | > 100 | > 100 | 137 | 30 |  |
| O=S1(=O)OC(c2ccc(O)cc2)(c2ccc(O)cc2)c2ccccc21 |  |  |  |  | inhibition [12]: 34.8% |
| O=C(NCCc1c[nH]c2ccccc12)c1ccccc1OC(=O)N(c1ccccc1)c1ccccc1 | > 100 | > 100 | 126 | 4.73 |  |
| CN1CCN(C(=O)Oc2ccccc2C(=O)NCCc2c[nH]c3ccccc23)CC1 | 66 | 92.7 | 49.7 | 5.14 |  |
| CCCCN(CCCC)C(=O)Oc1ccccc1C(=O)NCCc1c[nH]c2ccccc12 | 34.9 | 12.8 | 116 | 8.01 |  |
| CNC(=O)Oc1ccc2c(c1)[C@]1(C)CCOC1N2C (stereo partly specified) |  |  |  |  | IC50 (Acetylcholinesterase [5]): 0.004 µM |
| CN(C)C(=O)Oc1ccccc1C(=O)NCCc1c[nH]c2ccccc12 | 16.7 | 75.4 | 35.2 | 3.95 |  |
| O=C(NCCc1c[nH]c2ccccc12)c1ccccc1OC(=O)N1CCOCC1 | > 100 | 97.7 | 82.8 | 10 |  |
| O=C(NCCc1c[nH]c2ccccc12)c1ccccc1OC(=O)N1CCSCC1 | > 100 | > 100 | 1.53 | 1.44 |  |

From ChEMBL document CHEMBL5042497, “Design, synthesis, and biological evaluation of carbamate derivatives of N-salicyloyl tryptamine as multifunctional agents for the treatment of Alzheimer's disease” (Eur J Med Chem, 2022)
